# Reference: EP0312000B1, “Aminomethyl oxooxazolidinyl aroylbenzene derivatives useful as antibacterial agents” (THE DU PONT MERCK PHARMACEUTICAL COMPANY, priority 1987, dated 1989)
# Read-outs that look alike come from different tables or passages of the source.
# Legend:
# Staphylococcus Aureus [1] = assay: In vivo activity in an acute lethal mouse infection model; settings: 168 h, mice infected intraperitoneally with S. aureus, dosed at one hour and four hours post-infection, survivors on seventh day
# Protocol: The in vivo potency of these compounds is exemplified by the data summarized in Table V. Determinations of in vivo efficacy are performed by inoculating mice intraperitoneally with cultures of the infecting organism diluted to produce 100% mortality in control animals within twenty-four hours. The culture of S. aureus used to infect the animals was diluted to the required bacterial density using 5% aqueous hog gastric mucin. The compounds are dissolved or suspended in 0.25% aqueous Methocel® (Methocel®: Hydroxypropyl Methylcellulose, E15 Premium, Dow Chemical Company) for oral administration or sterile distilled water containing 5% dimethylsulfoxide (Fisher Scientific Company, Fairlawn, NJ) for subcutaneous administration. The mice are dosed at one hour and at four hours post-infection. Mortality is recorded daily until test termination seven days post infection. The number of survivors in each treatment group on the seventh day after infection is used in the calculation of the ED₅₀, the dose of compound that protects 50% of the mice (Litchfield, J. T. and Wildoxon. A simplified method for evaluating dose-effect experiments. J. Pharmacol Exp. Ther., 96:99-113, 1949).
# Staphylococcus aureus [2] = assay: In vitro broth microdilution minimal inhibitory concentration (MIC), Mueller-Hinton broth; type: cell-based; settings: 24-hour MIC, standard microdilution method, read-out: Minimum Inhibitory Concentration Staphylococcus aureus
# Excerpt: (§1) A standard microdilution method (National Committee for Clinical Standards. Tentative standard M7-T. Standard methods for dilution antimicrobial susceptibility tests for bacteria that grow aerobically. National Committee for Clinical Laboratory Standards, Villanova, PA. 1982) with Mueller-Hinton broth is used to determine the 24-hour minimal inhibitory concentrations (MIC's) for test strains of Staphylococcus aureus and Escherichia coli.
# Escherichia coli = assay: as above; type: cell-based; settings: 24-hour MIC, standard microdilution method, read-out: Minimum Inhibitory Concentration Escherichia coli
# Excerpt: as §1
# [3] = oral in 0.25% aqueous Methocel, read-out: ED₅₀ Oral Administration
# [4] = sc, subcutaneous in sterile distilled water containing 5% dimethylsulfoxide, read-out: ED₅₀ Subcutaneous Administration
compound,measurement,setting,value
"CC(=O)NC[C@H]1CN(c2ccc(C(=O)c3ccc(F)cc3)cc2)C(=O)O1 [Example 1, (ℓ)-N-[3-[4-(4-fluorobenzoyl)-phenyl]-2-oxooxazolidin-5-ylmethyl]acetamide]",ED50,Staphylococcus Aureus [1]; [3],40 mg/kg
same,ED50,Staphylococcus Aureus [1]; [4],20 mg/kg
same,MIC,Staphylococcus aureus [2],4 µg/mL
same,MIC,Escherichia coli,> 128 µg/mL
"CC(=O)NC[C@H]1CN(c2ccc(C(=O)c3ccc(F)cc3F)cc2)C(=O)O1 [Example 6, (ℓ)-N-[3-[4-(2,4-difluorobenzoyl)phenyl]-2-oxooxazolidin-5-ylmethyl]acetamide]",ED50,Staphylococcus Aureus [1]; [3],30 mg/kg
same,ED50,Staphylococcus Aureus [1]; [4],26 mg/kg
same,MIC,Staphylococcus aureus [2],1 µg/mL
same,MIC,Escherichia coli,> 128 µg/mL
"CC(=O)NC[C@H]1CN(c2ccc(C(=O)c3ccc([N+](=O)[O-])cc3)cc2)C(=O)O1 [Example 9, (ℓ)-N-[3-[4-(4-nitrobenzoyl)phenyl]-2-oxooxazolidin-5-ylmethyl]acetamide]",ED50,Staphylococcus Aureus [1]; [3],> 90 mg/kg
same,ED50,Staphylococcus Aureus [1]; [4],> 90 mg/kg
same,MIC,Staphylococcus aureus [2],1 µg/mL
same,MIC,Escherichia coli,> 128 µg/mL
CC(=O)NC[C@H]1CN(c2ccc(C(=O)c3ccc([S+](C)[O-])cc3)cc2)C(=O)O1 (stereo partly drawn) [Example 10],ED50,Staphylococcus Aureus [1]; [3],> 90 mg/kg
same,ED50,Staphylococcus Aureus [1]; [4],> 90 mg/kg
same,MIC,Staphylococcus aureus [2],16 µg/mL
same,MIC,Escherichia coli,> 128 µg/mL
CC(=O)NC[C@H]1CN(c2ccc(C(=O)c3ccc(S(C)(=O)=O)cc3)cc2)C(=O)O1 [Example 11],ED50,Staphylococcus Aureus [1]; [3],> 90 mg/kg
same,ED50,Staphylococcus Aureus [1]; [4],> 90 mg/kg
same,MIC,Staphylococcus aureus [2],4 µg/mL
same,MIC,Escherichia coli,> 128 µg/mL
CC(=O)NC[C@H]1CN(c2ccc(C(=O)c3ccccc3)cc2)C(=O)O1 [Example 2],ED50,Staphylococcus Aureus [1]; [3],47 mg/kg
same,ED50,Staphylococcus Aureus [1]; [4],60 mg/kg
same,MIC,Staphylococcus aureus [2],4 µg/mL
same,MIC,Escherichia coli,> 128 µg/mL
CC(=O)NC[C@H]1CN(c2ccc(C(=O)c3cccc(F)c3)cc2)C(=O)O1 [Example 5],ED50,Staphylococcus Aureus [1]; [3],42 mg/kg
same,ED50,Staphylococcus Aureus [1]; [4],25 mg/kg
same,MIC,Staphylococcus aureus [2],8 µg/mL
same,MIC,Escherichia coli,> 128 µg/mL
COc1cc(Cl)ccc1C(=O)c1ccc(N2C[C@H](CNC(C)=O)OC2=O)cc1 [Example 7],ED50,Staphylococcus Aureus [1]; [3],> 120 mg/kg
same,ED50,Staphylococcus Aureus [1]; [4],> 120 mg/kg
same,MIC,Staphylococcus aureus [2],32 µg/mL
same,MIC,Escherichia coli,> 128 µg/mL
CC(=O)NC[C@H]1CN(c2ccc(C(=O)c3cccnc3)cc2)C(=O)O1 [Example 15],ED50,Staphylococcus Aureus [1]; [3],> 90 mg/kg
same,ED50,Staphylococcus Aureus [1]; [4],59 mg/kg
same,MIC,Staphylococcus aureus [2],8 µg/mL
same,MIC,Escherichia coli,> 128 µg/mL
CSc1ccc(C(=O)c2ccc(N3C[C@H](CNC(C)=O)OC3=O)cc2)cc1 [Example 8],ED50,Staphylococcus Aureus [1]; [3],> 90 mg/kg
same,ED50,Staphylococcus Aureus [1]; [4],> 90 mg/kg
same,MIC,Staphylococcus aureus [2],4 µg/mL
same,MIC,Escherichia coli,> 128 µg/mL
COc1ccc(C(=O)c2ccc(N3C[C@H](CNC(C)=O)OC3=O)cc2)cc1 [Example 3],ED50,Staphylococcus Aureus [1]; [3],41 mg/kg
same,ED50,Staphylococcus Aureus [1]; [4],15 mg/kg
same,MIC,Staphylococcus aureus [2],4 µg/mL
same,MIC,Escherichia coli,> 128 µg/mL
CC(=O)NC[C@H]1CN(c2ccc(C(O)c3ccccc3)cc2)C(=O)O1 (stereo partly drawn) [Example 20],ED50,Staphylococcus Aureus [1]; [3],65 mg/kg
same,ED50,Staphylococcus Aureus [1]; [4],52 mg/kg
same,MIC,Staphylococcus aureus [2],32 µg/mL
same,MIC,Escherichia coli,> 128 µg/mL
